Results as given in ChEMBL document CHEMBL1201862, “PubChem BioAssay data set” (2004).
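Results reflect a 48-hour exposure of cells in 96-well plates to compound at five concentrations. Here, GI50 denotes the concentration required for 50% inhibition of growth.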 Active and inactive are the calls of the source. Cut-off read from the data, not from the text of the source: active = GI50 up to about 1.1 µM and inactive = higher.

How the values were obtained:
Assay in all cases: inhibition of tumour cell growth, NCI panel, 48 h
ACHN = test system: ACHN
BT-549 = test system: BT-549
COLO 205 = test system: COLO 205
DU-145 = test system: DU-145
EKVX = test system: EKVX
IGROV-1 = test system: IGROV-1
KM12 = test system: KM12
M14 = test system: M14
MDA-MB-231 = test system: MDA-MB-231
MDA-N = test system: MDA-N
NCI-H23 = test system: NCI-H23
NCI/ADR-RES = test system: NCI/ADR-RES
OVCAR-3 = test system: OVCAR-3
OVCAR-5 = test system: OVCAR-5
SK-MEL-2 = test system: SK-MEL-2
SNB-19 = test system: SNB-19
TK-10 = test system: TK-10
UACC-62 = test system: UACC-62
UO-31 = test system: UO-31
RPMI-8226 = test system: RPMI-8226

| Structure (SMILES) | GI50 (ACHN) | GI50 (BT-549) | GI50 (COLO 205) | GI50 (DU-145) | GI50 (EKVX) | GI50 (IGROV-1) | GI50 (KM12) | GI50 (M14) | GI50 (MDA-MB-231) | GI50 (MDA-N) | GI50 (NCI-H23) | GI50 (NCI/ADR-RES) | GI50 (OVCAR-3) | GI50 (OVCAR-5) | GI50 (SK-MEL-2) | GI50 (SNB-19) | GI50 (TK-10) | GI50 (UACC-62) | GI50 (UO-31) | GI50 (RPMI-8226) |
| --- | --- | --- | --- | --- | --- | --- | --- | --- | --- | --- | --- | --- | --- | --- | --- | --- | --- | --- | --- | --- |
| CCNCCCNc1c2ccccc2nc2ccccc12 | 0.136 µM (active) | 1.92 µM (inactive) | 0.232 µM (active) | 0.525 µM (active) | 0.569 µM (active) | 0.48 µM (active) | 0.396 µM (active) | 0.318 µM (active) | 0.612 µM (active) | 0.356 µM (active) | 0.446 µM (active) | 0.916 µM (active) | 0.326 µM (active) | 0.278 µM (active) | 0.518 µM (active) | 0.499 µM (active) | 0.571 µM (active) | 0.387 µM (active) | 0.334 µM (active) |  |
| CC1C2CC(CC(=O)N2)C1(C)C (centres undefined) | > 100 µM (inactive) | > 100 µM (inactive) | > 100 µM (inactive) | > 100 µM (inactive) | > 100 µM (inactive) | > 100 µM (inactive) | > 100 µM (inactive) | > 100 µM (inactive) | > 100 µM (inactive) | > 100 µM (inactive) | > 100 µM (inactive) |  | > 100 µM (inactive) | > 100 µM (inactive) |  | > 100 µM (inactive) | > 100 µM (inactive) | > 100 µM (inactive) | > 100 µM (inactive) |  |
| COc1cc2c(cc1OC)C1CN3CCCC3C(O)C1c1cc(OC)c(OC)cc1-2 (centres undefined) | > 100 µM (inactive) | > 100 µM (inactive) | > 100 µM (inactive) | > 100 µM (inactive) | > 100 µM (inactive) | > 100 µM (inactive) | > 100 µM (inactive) | > 100 µM (inactive) | > 100 µM (inactive) | > 100 µM (inactive) | > 100 µM (inactive) | > 100 µM (inactive) |  | > 100 µM (inactive) | > 100 µM (inactive) | > 100 µM (inactive) | > 100 µM (inactive) | > 100 µM (inactive) | > 100 µM (inactive) | > 100 µM (inactive) |
| NNC(=O)CSc1nnc(CCCCCCCCc2nnc(SCC(=O)NN)o2)o1 | > 100 µM (inactive) | > 100 µM (inactive) | > 100 µM (inactive) | > 100 µM (inactive) | > 100 µM (inactive) | > 100 µM (inactive) | > 100 µM (inactive) | > 100 µM (inactive) | > 100 µM (inactive) | > 100 µM (inactive) | > 100 µM (inactive) | > 100 µM (inactive) |  | > 100 µM (inactive) | > 100 µM (inactive) | > 100 µM (inactive) | > 100 µM (inactive) | > 100 µM (inactive) | > 100 µM (inactive) | > 100 µM (inactive) |
| NCCC(=O)N[C@H](Cc1cc(O)c(O)c(SCC(NC(=O)CC[C@H](N)C(=O)O)C(=O)NCC(=O)O)c1)C(=O)O (some centres undefined) | > 50 µM (inactive) | > 50 µM (inactive) | > 50 µM (inactive) | > 50 µM (inactive) | > 50 µM (inactive) | > 50 µM (inactive) | > 50 µM (inactive) | > 50 µM (inactive) | > 50 µM (inactive) | > 50 µM (inactive) | > 50 µM (inactive) | > 50 µM (inactive) |  | > 50 µM (inactive) | > 50 µM (inactive) | > 50 µM (inactive) | > 50 µM (inactive) | > 50 µM (inactive) | > 50 µM (inactive) | > 50 µM (inactive) |
| Cc1cc(S(=O)(=O)N=C2N(Cc3ccccc3)CCN2Cc2ccccc2)c(S)cc1Cl | > 10 µM (inactive) | > 100 µM (inactive) | > 100 µM (inactive) | > 100 µM (inactive) | > 100 µM (inactive) | > 100 µM (inactive) | > 100 µM (inactive) | > 100 µM (inactive) | > 100 µM (inactive) | > 100 µM (inactive) | > 100 µM (inactive) | > 100 µM (inactive) | > 100 µM (inactive) | > 100 µM (inactive) |  | > 100 µM (inactive) | > 100 µM (inactive) | > 100 µM (inactive) | 17.7 µM (inactive) | > 100 µM (inactive) |
| CC(=O)CCC1(C(=O)OCC(C)C)CCCC1=O (centres undefined) | > 100 µM (inactive) | > 100 µM (inactive) | > 100 µM (inactive) | > 100 µM (inactive) | > 100 µM (inactive) | > 100 µM (inactive) | > 100 µM (inactive) | > 100 µM (inactive) | > 100 µM (inactive) | > 100 µM (inactive) | > 100 µM (inactive) | > 100 µM (inactive) | 63.4 µM (inactive) | > 100 µM (inactive) | > 100 µM (inactive) | > 100 µM (inactive) | > 100 µM (inactive) | > 100 µM (inactive) | > 100 µM (inactive) |  |
| N#Cc1c(-c2ccccc2)cc(Nc2cccc(C(F)(F)F)c2)n2c1nc1ccccc12 | 1.88 µM (inactive) | 3.82 µM (inactive) | 1.04 µM (active) | 4.04 µM (inactive) | 1.2 µM (inactive) |  | 2.17 µM (inactive) |  | 1.71 µM (inactive) | 1.4 µM (inactive) | 0.336 µM (active) | 1.33 µM (inactive) | 0.561 µM (active) | 2.68 µM (inactive) |  |  | 2.56 µM (inactive) |  |  | 0.237 µM (active) |
| Cc1cc(Cl)ccc1NC(=O)/C(Cl)=C(/Cl)C(=O)O | 19.3 µM (inactive) | 19.1 µM (inactive) | 28.4 µM (inactive) | 23.9 µM (inactive) | 19.1 µM (inactive) |  | 31 µM (inactive) | 28.4 µM (inactive) | 21.7 µM (inactive) | 24.1 µM (inactive) | 29.3 µM (inactive) | 29 µM (inactive) | 18.4 µM (inactive) | 19.5 µM (inactive) |  | > 100 µM (inactive) | 17.5 µM (inactive) | 21.5 µM (inactive) | > 100 µM (inactive) | 24 µM (inactive) |
| CSC(SC)=C1C(=O)NN=C1C | > 100 µM (inactive) | > 100 µM (inactive) | > 100 µM (inactive) | > 100 µM (inactive) | > 100 µM (inactive) | > 100 µM (inactive) | > 100 µM (inactive) | > 100 µM (inactive) | > 100 µM (inactive) | > 100 µM (inactive) | > 100 µM (inactive) |  | > 100 µM (inactive) | > 100 µM (inactive) | > 100 µM (inactive) | > 100 µM (inactive) | > 100 µM (inactive) | > 100 µM (inactive) | > 100 µM (inactive) | > 100 µM (inactive) |
| CC(=O)N1N=C(N)CC1=O | > 100 µM (inactive) | > 100 µM (inactive) | > 100 µM (inactive) | > 100 µM (inactive) | > 100 µM (inactive) | > 100 µM (inactive) | > 100 µM (inactive) | > 100 µM (inactive) | > 100 µM (inactive) | > 100 µM (inactive) | > 100 µM (inactive) | > 100 µM (inactive) | > 100 µM (inactive) | > 100 µM (inactive) | > 100 µM (inactive) | > 100 µM (inactive) | > 100 µM (inactive) | > 100 µM (inactive) | > 100 µM (inactive) |  |
| C/C(=N\Nc1nc2ccccc2[nH]1)c1cc2ccccc2cn1 | < 0.0139 µM (active) | 0.592 µM (active) | < 0.01 µM (active) | 0.442 µM (active) | < 0.0183 µM (active) | < 0.0175 µM (active) | 0.0741 µM (active) | < 0.01 µM (active) | 0.0261 µM (active) | 0.171 µM (active) | 0.0345 µM (active) | 0.0284 µM (active) |  | 0.288 µM (active) | 0.508 µM (active) | 0.277 µM (active) | 0.122 µM (active) | 0.0531 µM (active) | 0.0115 µM (active) | < 0.01 µM (active) |
| COc1cc([N+](=O)[O-])c(OC)c2c(Nc3ccc(S(=O)(=O)O)c4cc(S(=O)(=O)O)cc(S(=O)(=O)O)c34)cc(C)nc12 |  | > 100 µM (inactive) | > 100 µM (inactive) | > 100 µM (inactive) | > 100 µM (inactive) | > 100 µM (inactive) | > 100 µM (inactive) | > 100 µM (inactive) | > 100 µM (inactive) | > 100 µM (inactive) | > 100 µM (inactive) | > 100 µM (inactive) | > 100 µM (inactive) | > 100 µM (inactive) | > 100 µM (inactive) |  | > 100 µM (inactive) | > 100 µM (inactive) | > 100 µM (inactive) |  |
| CC(NP(=O)(c1ccccc1)c1ccccc1)c1ccccc1 (centres undefined) | > 100 µM (inactive) | > 100 µM (inactive) | > 100 µM (inactive) | > 100 µM (inactive) | > 100 µM (inactive) | > 100 µM (inactive) | > 100 µM (inactive) | > 100 µM (inactive) | > 100 µM (inactive) | > 100 µM (inactive) | > 100 µM (inactive) | > 100 µM (inactive) | > 100 µM (inactive) | > 100 µM (inactive) |  | > 100 µM (inactive) | > 100 µM (inactive) | > 100 µM (inactive) | > 100 µM (inactive) | > 100 µM (inactive) |
| CCN(CC)c1ccc2cc(C(=O)Nc3ccccc3)c(=N)oc2c1 | > 100 µM (inactive) | > 100 µM (inactive) | > 100 µM (inactive) | > 100 µM (inactive) | > 100 µM (inactive) | > 100 µM (inactive) | > 100 µM (inactive) | > 100 µM (inactive) | > 100 µM (inactive) | > 100 µM (inactive) |  | > 100 µM (inactive) |  | > 100 µM (inactive) | > 100 µM (inactive) | > 100 µM (inactive) | > 100 µM (inactive) | > 100 µM (inactive) | > 100 µM (inactive) | > 100 µM (inactive) |
